Experimental data from patent publication US10100077B2, “6-aryl-9-glycosylpurines and use thereof” (UNIVERZITA PALACKEHO V OLOMOUCI, priority 2014, dated 2018).

Legend:
[1] = system: skin fibroblasts BJ and keratinocytes HaCaT; assay: MTT in vitro cytotoxicity test for skin cells; format: cell-based; details: for IC50: MTT, 72 hour treatment, BJ and HaCaT, maximal concentration 50 microM
Protocol: MTT assay is a standard test of toxicity based on photometric measurement of the ability of metabolically active cells to reduce MTT (3-(4,5-dimethylthiazol-2-yl)-2,5-diphenyltetrazolium bromide). Using the assay, the effects of 72 hour treatments with several concentrations of the compounds (sixfold dilution, maximal concentration=50 microM) on viability of skin fibroblasts BJ and keratinocytes HaCaT were evaluated. About 5,000 cells were seeded per well of a 96-well plate 24 hours before the treatment. DMSO vehiculum was used as a negative control. After 72 hour treatment, new medium with MTT (Sigma, M2128) was added to a final concentration of 0.5 mg/ml. After 3 hours, medium was removed and resulting formazan in the cells was dissolved in DMSO. The absorbance was measured at 570 nm (640 nm reference wavelength). The IC50 values were calculated from the dose-response curves. 6-Benzylaminopurine riboside and 6-furfurylaminopurine riboside were used as positive controls they were toxic in the MTT test.

[2] = system: skin fibroblasts BJ and keratinocytes HaCaT; assay: SRB in vitro toxicity test; format: cell-based; details: 72 hour treatment, maximal concentration 50 microM
Protocol: SRB (sulforhodamine B) assay is a standard toxicity test based on a photometric measurement of the cellular protein content after the staining with sulphorhodamine B. Using the assay, the effects of 72 hour treatments with several concentrations of the compounds (sixfold dilution, maximal concentration=50 microM) on viability of skin fibroblasts BJ and keratinocytes HaCaT were evaluated. About 5,000 cells were seeded per well of a 96-well plate 24 hours before the treatment. DMSO vehiculum was used as a negative non-toxic control. 6-benzylaminopurine riboside a 6-furfurylaminopurin riboside were used as positive toxic controls. After three days the medium was removed and the cells fixed with 10% (wt/vol) trichloroacetic acid. After the extensive washing in distilled water, 0.4% (wt/vol) solution of SRB in acetic acid was added and the fixed cells were stained for 30 minutes. The unbound stain was washed away by distilled water and the bound SRB was solubilized in unbuffered 10 mM Tris base. Absorbance was measured at 564 nm. IC50 values were calculated from dose-response curves.

breast cancer (MCF-7) = assay: Calcein AM cytotoxicity assay, MCF-7; format: cell-based; details: 72 hrs
Description: (§1) One of the parameters used as the base for cytotoxic analysis is metabolic activity of viable cells, such as microtiter assay, which uses the Calcein AM, is now widely used to quantitate cell proliferation and cytotoxicity. The quantity of reduced Calcein AM corresponds to the number of viable cells in culture. The cell lines of breast cancer (MCF-7), mousse fibroblasts (NIH3T3), human erythromleukemia (K562) were used for routine screening of cytotoxicity of the compounds. The cells were maintened in Nunc/Corning 80 cm^2 plastic bottles and grown in media for cell culture (DMEM containing 5 g/l of glucose, 2 mM of glutamin, 100 U/ml of penicilin, […] of streptomycin, 10% of fetal bovine serum and sodium hydrogencarbonate). Cell suspensions were diluted according to cell types and according to expected final cell density (10^4 of cells per well according to characteristics of cell growth), pipetted 80 μl of cell suspension on 96-well microtiter plates. Innoculates were stabilized by 24 hrs preincubation at 37° C. in CO2. Particular concentrations of tested compounds were added in time zero as 20 μl aliquotto wells of microtiter plates. Usually, the compounds were diluted into six concentrations in four-fold dilution series. In routine testing, the highest well concentration was 166.7 μM, of change dependent on the substance. All drug concentrations were examined in duplicates. The incubation of cells with tested derivatives lasted 72 hrs at 37° C., 100% humidity and in the atmosphere of CO2. At the end of the incubation period, the cells were tested and analysed according to the addition of Calcein AM (Molecular probes) solution and the incubation lasted for next 1 hour. Fluorescence (FD) was measured using Labsystem FIA reader Fluorskan Ascent (Microsystems). The survival of tumor cells (The tumor cell survival-TCS) was counted according to equation: […]=(FDwell with derivative/FDcontrol well)×100%. The value of GI50, that is equal to the concentration of compound at which 50% of tumour cells are terminated. To evaluate the antitumor activity was tested toxicity of new derivatives on panel of cell lines of different histogenetic and species origin (Tab. 7, G150 concentration given in μM). […] Effective derivatives killed tumor cells in concentrations close to 0.1 to 50. None of the newly prepared compounds only reached the value.

[3] = system: human erythromleukemia (K562); assay: Calcein AM cytotoxicity assay, K562; format: cell-based; details: 72 hrs
Description: as §1

[4] = system: mousse fibroblasts (NIH3T3); assay: Calcein AM cytotoxicity assay, NIH3T3; format: cell-based, mouse; details: 72 hrs
Description: as §1

[5] = system: detached leaf segments of Triticum aestivum cv. Hereward; assay: Senescence bioassay on wheat leaf segments (chlorophyll retention); details: for maximum effective concentration: 96 h in the dark at 25° C.; for activity (%) [10^−4 mol · l^−1 BAP = 100%]: chlorophyll retention at maximum effective concentration, 96 h dark
Protocol: Seeds of winter wheat, Triticum aestivum cv. Hereward, were washed under running water for 24 hours and then sown on vermiculite soaked with Knop's solution. They were placed in the growth chamber at 25° C. with a 16/8 h light period at 50 μmol·m^−2·s^−1. After 7 days, the first leaf was fully developed and the second leaf had started to grow. A tip section of the first leaf, approximately 35 mm long, was removed from 5 seedlings and trimmed slightly to a combined weight of 100 mg. The basal ends of the five leaf tips were placed in the wells of a microtiter polystyrene plate containing 150 μL, of the tested derivative solution each. The entire plate was inserted into a plastic box lined with paper tissues soaked in distilled water to prevent leaf sections from drying out. After 96 h incubation in the dark at 25° C., the leaves were removed and chlorophyll extracted by heating at 80° C. for 10 min in 5 mL of 80% ethanol (v/v). The sample volume was then restored to 5 mL by the addition of 80% ethanol (v/v). The absorbance of the extract was recorded at 665 nm. In addition, chlorophyll extracts from fresh leaves and leaf tips incubated in deionised water were measured. The results are means of five replicates and the entire test was repeated twice. […] The compounds to be tested were dissolved in dimethylsulfoxide (DMSO) and the solution brought up to 10^−3M with distilled water. This stock solution was further diluted with the respective media used for the biotest to a concentration ranging from 10^−8M to 10^−4M. […] The activity obtained for 10^−4 M of BAP was postulated as 100%.

## OC[C@H]1O[C@@H](n2cnc3c(NCc4cccc(O)c4)ncnc32)[C@@H](O)[C@@H]1O [6-(3-hydroxybenzylamino)-9-β-D-arabinofuranosylpurine]
[1]; Homo sapiens
  IC50: > 50 µM
[2]; Homo sapiens
  IC50: > 50 µM

## OC[C@H]1O[C@@H](n2cnc3c(NCc4ccccc4F)ncnc32)[C@@H](O)[C@@H]1O [2-fluorobenzylamino-9-β-D-arabinofuranosylpurine]
Breast cancer (MCF-7)
  GI50: 87 µM
[3]
  GI50: > 100 µM
[4]
  GI50: > 100 µM

## OC[C@H]1O[C@@H](n2cnc3c(NCc4cccc(Br)c4)ncnc32)[C@H](O)[C@@H]1O [6-(3-bromobenzylamino)-9-riboside, reference compound]
[5]
  maximum effective concentration: 10^−4 mol · l^−1
  activity (%) [10^−4 mol · l^−1 BAP = 100%]: 89 ± 10%

## OC[C@H]1O[C@@H](n2cnc3c(NCc4cccc(Cl)c4)ncnc32)C[C@@H]1O [3-chlorobenzylamino-9-β-D-2′-deoxyribosylpurine]
Breast cancer (MCF-7)
  GI50: > 100 µM
[3]
  GI50: > 100 µM
[4]
  GI50: > 100 µM

## Nc1cccc(CNc2ncnc3c2ncn3[C@@H]2O[C@H](CO)[C@@H](O)[C@@H]2O)c1 [6-(3-aminobenzylamino)-9-β-D-arabinofuranosylpurine]
[1]; Homo sapiens
  IC50: > 50 µM
[2]; Homo sapiens
  IC50: > 50 µM

## OC[C@H]1OC(n2cnc3c(NCc4ccco4)ncnc32)[C@H](O)[C@@H]1O (stereo partly shown) [6-furfurylamino-9-ribosylpurine, reference compound]
[1]; Homo sapiens
  IC50: ≤ 3 µM
[1]; positive controls
  toxicity in the MTT test: toxic
[2]; Homo sapiens
  IC50: ≤ 3 µM

## OC[C@H]1O[C@@H](n2cnc3c(NCc4ccc(Cl)cc4Cl)ncnc32)[C@H](O)[C@@H]1O [6-(2,4-dichlorbenzylamino)-9-riboside, reference compound]
[5]
  maximum effective concentration: 10^−4 mol · l^−1
  activity (%) [10^−4 mol · l^−1 BAP = 100%]: 5 ± 1%

## OC[C@H]1O[C@@H](n2cnc3c(NCc4cccc(Cl)c4)ncnc32)[C@H](O)[C@@H]1O [6-(3-chlorobenzylamino)-9-riboside, reference compound]
[5]
  maximum effective concentration: 10^−4 mol · l^−1
  activity (%) [10^−4 mol · l^−1 BAP = 100%]: 72 ± 8%

## OC[C@H]1O[C@@H](n2cnc3c(NCc4ccc(Br)cc4)ncnc32)[C@@H](O)[C@@H]1O [6-(4-bromobenzylamino)-9-β-D-arabinofuranosylpurine]
[5]
  activity (%) [10^−4 mol · l^−1 BAP = 100%]: 176 ± 11%

## OC[C@H]1O[C@@H](n2cnc3c(NCc4cccc(O)c4)ncnc32)C[C@@H]1O [3-hydroxybenzylamino-9-β-D-2′-deoxyribosylpurine]
Breast cancer (MCF-7)
  GI50: > 100 µM
[3]
  GI50: > 100 µM
[4]
  GI50: > 100 µM

## OC[C@H]1O[C@@H](n2cnc3c(NCc4cccc(Br)c4)ncnc32)[C@@H](O)[C@@H]1O [6-(3-bromobenzylamino)-9-β-D-arabinofuranosylpurine]
[5]
  activity (%) [10^−4 mol · l^−1 BAP = 100%]: 198 ± 10%

## COc1cccc(CNc2ncnc3c2ncn3[C@@H]2O[C@H](CO)[C@@H](O)[C@@H]2O)c1OC [6-(2,3-dimethoxybenzylamino)-9-β-D-arabinofuranosylpurine]
[1]; Homo sapiens
  IC50: 49 µM
[2]; Homo sapiens
  IC50: > 50 µM

## OC[C@H]1O[C@@H](n2cnc3c(NCc4ccccc4Br)ncnc32)[C@@H](O)[C@@H]1O [6-(2-bromobenzylamino)-9-β-D-arabinofuranosylpurine]
[5]
  activity (%) [10^−4 mol · l^−1 BAP = 100%]: 186 ± 19%

## 2,4-dimethoxybenzylamino-9-β-D-arabinofuranosylpurine
Breast cancer (MCF-7)
  GI50: 98 µM
[3]
  GI50: > 100 µM
[4]
  GI50: > 100 µM

## OC[C@H]1O[C@@H](n2cnc3c(NCc4ccc(O)cc4)ncnc32)[C@@H](O)[C@@H]1O [4-hydroxybenzylamino-9-β-D-arabinofuranosylpurine]
Breast cancer (MCF-7)
  GI50: > 100 µM
[3]
  GI50: > 100 µM
[4]
  GI50: 87 µM

## OC[C@H]1O[C@@H](n2cnc3c(NCc4ccccc4O)ncnc32)C[C@@H]1O [6-(2-hydroxybenzylamino)-9-β-D-2′-deoxyribofuranosylpurine]
[1]
  IC50: > 50 µM
[2]
  IC50: > 50 µM

## 2-chloro-4-fluorobenzylamino-9-β-D-arabinofuranosylpurine
Breast cancer (MCF-7)
  GI50: > 100 µM
[3]
  GI50: > 100 µM
[4]
  GI50: > 100 µM

## OC[C@H]1O[C@@H](n2cnc3c(NCc4cccc(I)c4)ncnc32)[C@H](O)[C@@H]1O [6-(3-iodobenzylamino)-9-riboside, reference compound]
[5]
  maximum effective concentration: 10^−4 mol · l^−1
  activity (%) [10^−4 mol · l^−1 BAP = 100%]: 58 ± 19%

## OC[C@H]1O[C@@H](n2cnc3c(NCc4ccc(Cl)cc4)ncnc32)[C@@H](O)[C@@H]1O [4-chlorobenzylamino-9-β-D-arabinofuranosylpurine]
Breast cancer (MCF-7)
  GI50: > 100 µM
[3]
  GI50: > 100 µM
[4]
  GI50: > 100 µM

## OC[C@H]1O[C@@H](n2cnc3c(NCc4ccccc4Cl)ncnc32)[C@@H](O)[C@@H]1O [6-(2-chlorobenzylamino)-9-β-D-arabinofuranosylpurine]
[1]; Homo sapiens
  IC50: > 50 µM
[2]; Homo sapiens
  IC50: > 50 µM

## COc1ccc(CNc2ncnc3c2ncn3[C@@H]2O[C@H](CO)[C@@H](O)[C@H]2O)cc1OC [6-(3,4-dimethoxybenzylamino)-9-riboside, reference compound]
[5]
  maximum effective concentration: 10^−4 mol · l^−1
  activity (%) [10^−4 mol · l^−1 BAP = 100%]: 47 ± 6%

## OC[C@H]1O[C@@H](n2cnc3c(NCc4cccc(I)c4)ncnc32)[C@@H](O)[C@@H]1O [6-(3-iodobenzylamino)-9-β-D-arabinofuranosylpurine]
[1]; Homo sapiens
  IC50: > 50 µM
[2]; Homo sapiens
  IC50: > 50 µM
[5]
  activity (%) [10^−4 mol · l^−1 BAP = 100%]: 198 ± 4%

## OC[C@H]1O[C@@H](n2cnc3c(NCc4ccco4)ncnc32)C[C@@H]1O [6-(furfurylamino)-9-β-D-2′-deoxyribofuranosylpurine]
[1]
  IC50: > 50 µM
[2]
  IC50: > 50 µM

## COc1ccc(CNc2ncnc3c2ncn3[C@@H]2O[C@H](CO)[C@@H](O)[C@@H]2O)cc1OC [6-(3,4-dimethoxybenzylamino)-9-β-D-arabinofuranosylpurine]
[5]
  activity (%) [10^−4 mol · l^−1 BAP = 100%]: 147 ± 6%

## COc1ccc(CNc2ncnc3c2ncn3[C@@H]2O[C@H](CO)[C@@H](O)[C@@H]2O)c(OC)c1OC [6-(2,3,4-trimethoxybenzylamino)-9-β-D-arabinofuranosylpurine]
[1]; Homo sapiens
  IC50: 48 µM
[2]; Homo sapiens
  IC50: > 50 µM
